Values joined by “and” are separate entries in the source; they are usually repeats but may differ in a detail not shown here. Identical values can stand only once. Counter-ions that a name gives are not always drawn. Like-named read-outs stand apart in the source and are kept apart here.

The conditions of series [1]: cited from earlier work.
The conditions of series [2]: cited from earlier work. This is another data set of the same source.
Series [3] has as its system Aβ. Description: Aβ in media of SYSY-APP cells, Covance ELISA. The class given is cell-based. As to the method:
• 1. Thaw SYSY-APP cells, add to warmed high glucose DMEM with 10% serum, pen-strep in t-75 flask. In 2 days, split culture into 4 flasks. Collect cells from 3 and freeze in liquid N2. Use remaining culture for experiment. • 2. Seed 24-well plate with cells in same media. Grow to confluence. • 3. […] After 16 hr incubation, isolate media, add 10 ul protease inhibitor and spin out cells and debris (3000×g); • 4.

Another series concerns the target T1, Abl kinase (Homo sapiens, UniProt P00519).
T1 construct: purchased Millipore, Temecula, Calif
Put plainly: Abl kinase activity, 32P-ATP / Abltide peptide, scintillation counting. The class given is biochemical. The note with it: for Abl kinase activity, CPM (single assay): duplicates 1 and 2. The procedure:
The following were combined in order:
10 μL 2.5× kinase assay buffer
2.5 μL Abl kinase (Millipore, Temecula, Calif.)
1 μL DMSO vehicle or inhibitor in DMSO on ice
2.5 μL Abltide synthetic peptide substrate, biotin-tagged (Millipore, Temecula, Calif.) • Incubate at 30° C. for 10 min.; • Stop by the addition of 12.5 μL 7.5M guanidine HCL to each reaction, vortex. • Spot 12.5 μL on SAM2 biotin capture membrane (Promega Corp., Madison, Wis.) • Wash the membrane (4×2M NaCl; 4×2M NaCl, 1% H3PO4, 2×H2O, at room temp.) • Kinase activity was determined by scintillation counting. • The Scintillation count: final drug concentration shown • Each assay was performed in duplicate.

The conditions of series [4]: cited from earlier work. This is another data set of the same source.
For series [5], the system named is Aβ. The procedure:
Wild-type C57B1/6 and DBA/2J male mice (age 8-12 weeks) were administered drug or vehicle twice daily for 7 days by intraperitoneal injection.
Animals were sacrificed 12 hr after the last injection. Individual mice were anesthetized with isoflurane and blood samples (100-300 ul) taken by cardiac puncture with heparinized syringes. Samples were placed on ice for 30 minutes in the presence of EDTA and then centrifuged for 20 minutes at 16,000×g at 4° C. The plasma fraction was removed and stored at −80° C. Brains were removed and frozen rapidly on dry ice and stored at −80° C.
Detection of mouse Aβ1-40 in blood and brain samples was performed by using a commercially available immunoassay kit (Biosource mouse Aβ1-40, Catalog No. KMB3481, Invitrogen, Carlsbad, Calif.) or by Western blot. Mouse brain samples were prepared by homogenizing brain tissue in a polytron in the presence of 5M guanidine HCl and 50 mM Tris HCl, pH 8.0 as described in the assay protocol.
Blood samples were diluted 1:5 in standard diluent buffer. Samples were assayed in duplicate and OD450 measured on a Tecan infinite 2000 plate reader.
For Western blots, samples were subjected to P AGE analysis, transferred to PVDF membranes and the Aβ hexamers were visualized using a monoclonal antibody 4G8 directed against mouse Aβ (1:1,000; Covance) using the manufacturer's recommended protocol. Blots were scanned by densitometry, and then reprobed with an antibody to histone H3 (1:50,000; Abcam) as a loading and transfer control. Data are depicted as normalized optical density.

Where [6] appears, read: 20 mg/kg IP twice daily 7 days, young and old B mice.

T1 sequence (P00519 whole entry): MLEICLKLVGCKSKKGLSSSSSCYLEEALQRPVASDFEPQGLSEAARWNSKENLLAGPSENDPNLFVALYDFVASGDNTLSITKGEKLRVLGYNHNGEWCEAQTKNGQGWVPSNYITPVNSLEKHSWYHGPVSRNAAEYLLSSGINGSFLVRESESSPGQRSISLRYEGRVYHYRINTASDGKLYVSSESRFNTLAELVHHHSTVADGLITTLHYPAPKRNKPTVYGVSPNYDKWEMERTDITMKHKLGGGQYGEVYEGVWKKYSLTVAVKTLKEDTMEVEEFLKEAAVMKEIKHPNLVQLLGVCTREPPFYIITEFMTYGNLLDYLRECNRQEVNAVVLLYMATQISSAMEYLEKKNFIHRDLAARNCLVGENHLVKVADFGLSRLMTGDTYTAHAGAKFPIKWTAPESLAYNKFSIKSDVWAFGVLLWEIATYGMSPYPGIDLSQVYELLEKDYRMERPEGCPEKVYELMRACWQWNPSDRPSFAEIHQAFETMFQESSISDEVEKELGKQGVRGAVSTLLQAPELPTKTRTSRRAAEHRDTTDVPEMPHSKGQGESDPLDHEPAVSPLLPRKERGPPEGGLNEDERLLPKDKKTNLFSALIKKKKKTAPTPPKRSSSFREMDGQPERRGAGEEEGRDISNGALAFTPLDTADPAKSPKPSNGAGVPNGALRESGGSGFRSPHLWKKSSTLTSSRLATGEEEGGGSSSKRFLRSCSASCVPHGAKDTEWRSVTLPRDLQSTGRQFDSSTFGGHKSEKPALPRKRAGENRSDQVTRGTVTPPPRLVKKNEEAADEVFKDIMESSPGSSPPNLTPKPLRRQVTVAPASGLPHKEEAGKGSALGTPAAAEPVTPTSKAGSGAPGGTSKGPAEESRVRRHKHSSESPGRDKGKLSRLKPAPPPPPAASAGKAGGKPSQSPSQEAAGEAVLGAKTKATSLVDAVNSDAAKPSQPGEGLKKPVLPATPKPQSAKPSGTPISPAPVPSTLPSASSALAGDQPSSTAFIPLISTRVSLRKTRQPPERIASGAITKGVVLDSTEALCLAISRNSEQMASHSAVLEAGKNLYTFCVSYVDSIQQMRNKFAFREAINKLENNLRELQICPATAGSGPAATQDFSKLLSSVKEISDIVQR

With `COc1cc([S+](C)[O-])ccc1-c1nc2ncccc2[nH]1` (stereo not drawn) [ARL115, sulmazole], in series [1] (calculated value), the “log P, calcd.” value is 1.82. Besides, the “CNS side effects (in words)” value in series [2] (humans) is on record as “lack the CNS side effects”.
For `COc1ccc(-c2nc3ncccc3[nH]2)c(OC)c1.Cl` [ARL-57], in series [1] (pH 8), the “log P” value is listed as 2.59. In addition, the “CNS side effects (in words)” value in series [2] (in vivo) is on record as “spectacular bright color vision”.
For the compound `Cc1cc(NC(=O)c2ccc(CN3CCN(C)CC3)cc2)ccc1Nc1nccc(-c2cccnc2)n1` [Imatinib para-diaminomethylbenzene 3 HCl], the “effect on Aβ concentration (in words)” value in the series on Aβ [3] (3-100 μM, 150 μL media supernatant, FIG. 7) was “stronger inhibition of Aβ than does imatinib”.
For the compound `Cc1ccc(NC(=O)c2ccc(CN3CCNCC3)cc2)cc1Nc1nccc(-c2cccnc2)n1` [N-desmethyl imatinib], the “Abl kinase activity, CPM (single assay)” value is 540 CPM and 649 CPM at Abl kinase (10 μM final drug concentration, DMSO vehicle 2837/2956); 149 CPM at Abl kinase (30 μM final drug concentration). The “Abl kinase activity, AVERAGE of the two assays” value is 595 CPM at Abl kinase (10 μM, DMSO vehicle average 2897); 149 CPM on Abl kinase (30 μM); 107 CPM at Abl kinase (100 μM). On Abl kinase (concentrations 10 to 100 μM, FIG. 8), the “Abl kinase inhibition (in words)” value is recorded as “inhibits Abl kinase less than does imatinib”. The “plasma AUC of the metabolite as share of the AUC for imatinib” value in series [4] (humans) is reported as “about 15%”. For the same compound, the elimination half-life in series [4] (oral administration in healthy volunteers) was ~40 h. The “reduction of Aβ compared with imatinib (in words)” value with Aβ [3] (3-100 uM, 16 hr, 100 μL aliquot, FIG. 6) is reported as “more effective reduction of Aβ than does imatinib”.
`Cc1ccc(NC(=O)c2ccc(CN3CCN(C)CC3)cc2)cc1Nc1nccc(-c2cccnc2)n1` [STI-571]: in the series with Aβ [5] (setting [6]), the “reduction of brain levels of Aβ” value was “approximately 50%” and the “reduction of plasma levels of Aβ” value is “approximately 50%”. Further, in the series on Aβ [5] (highest dose (100 mg/kg) IP twice daily 7 days, young D2 mice), the “reduction of circulating (plasma) Aβ” value is on record as “approximately 75%”.
For `Cc1ccc(NC(=O)c2ccc(CN3CCN(C)CC3)cc2)cc1Nc1nccc(-c2cccnc2)n1` [imatinib, reference compound], the “Cmax (time)” value in series [4] (oral administration in pediatric patients) was 2 to 4 h.
